In patent US10952992B2, “Methods of treating intraocular pressure with activators of Tie-2” (Aerpio Pharmaceuticals, Inc., priority 2015, dated 2021):
Several values for one entry are separate records, joined by “and”; a condition that tells them apart may be missing. Equal entries are not always repeated. Structures can show the parent of a compound that is named as a salt.

Test: Example 2 iris, retina, choroid and cornea tissue concentrations
Format: in vivo, male New Zealand White rabbits
Settings: for Choroid Conc. OS / Choroid Conc. OD: choroid homogenate; for Choroid Conc. OS / Choroid tissue Conc. OS / Cornea Conc. OS / Cornea tissue Conc. OS / Iris Conc. OS / Iris tissue Conc. OS: left eye; for Choroid Conc. OS / Choroid Conc. OD / Choroid tissue Conc. OS / Choroid tissue Conc. OD / Cornea Conc. OS / Cornea Conc. OD / Cornea tissue Conc. OS / Cornea tissue Conc. OD / Iris Conc. OS / Iris Conc. OD / Iris tissue Conc. OS / Iris tissue Conc. OD: individual animals; for Choroid Conc. OS / Choroid Conc. OD / Choroid tissue Conc. Avg. / Choroid tissue Conc. OS / Choroid tissue Conc. OD / Cornea Conc. OS / Cornea Conc. OD / Cornea tissue Conc. Avg. / Cornea tissue Conc. OS / Cornea tissue Conc. OD / Iris Conc. OS / Iris Conc. OD / Iris tissue Conc. Avg. / Iris tissue Conc. OS / Iris tissue Conc. OD: intravitreal 2.5 mg/eye (~1.55 mg/kg), Group 4; for Choroid Conc. OD / Choroid tissue Conc. OD / Cornea Conc. OD / Cornea tissue Conc. OD / Iris Conc. OD / Iris tissue Conc. OD: right eye; for Choroid tissue Conc. Avg. / Cornea tissue Conc. Avg. / Iris tissue Conc. Avg.: average; for Cornea Conc. OS / Cornea Conc. OD: cornea homogenate; for Iris Conc. OS / Iris Conc. OD: iris homogenate
Protocol: To measure the concentration of Compound 1 in plasma and ocular tissues following topical ocular, subcutaneous, and intravitreal administration, New Zealand White rabbits were administered Compound 1, and plasma and ocular samples were collected at pre-determined time points. Compound 1 formulations were prepared fresh on each day of dosing.
Ocular tissue samples from both eyes of each animal were collected and weights were recorded. Plasma and ocular tissue sample concentrations of Compound 1 were determined by LC-MS/MS.
Animals were anesthetized for ocular (topical) and intravitreal dosing following the 12IA7 IACUC protocol. Each rabbit received a bolus dose of test formulation either via topical ocular administration 3 times daily on Days 1 and 2 (at 0, 6, and 12 hours), and once on Day 3 (at 0 hours) into both eyes; via intravitreal administration into both eyes once on Day 1 (at 0 hours); or via subcutaneous administration 2 times daily on Days 1 and 2 (at 0 and 8 hours) and once daily on Day 3 (at 0 hours). Doses were given within an approximately 1 hour window each day where applicable.
On Day 1, for intravitreal administration, or on Day 3, for topical ocular and subcutaneous administration, at the appropriate ocular tissue collection time points, animals were euthanized and both eyes were enucleated immediately. Following enucleation, each eye was rinsed with phosphate-buffered saline. Ocular tissue samples from both eyes of each animal were collected at predetermined time points and weights were recorded. All the samples were frozen immediately on dry ice, and stored at −60° C. to −80° C. pending bioanalysis.
An LC-MS/MS method was developed for the determination of Compound 1 in rabbit aqueous tissues (plasma, aqueous and vitreous humor) and solid ocular tissue samples. A pre-study standard curve was analyzed to determine the specificity, range, and lower limit of quantitation of the method. Plasma and tissue homogenate study samples were extracted and analyzed. All the samples were treated identically to the standards.
One eight-point standard curve was used in each analytical batch. To be accepted, each batch must have had at least five of eight standards with accuracy within ±20% of nominal, except at the lower limit of quantification (LLOQ), where ±25% was acceptable.

COC(=O)N[C@@H](Cc1ccccc1)C(=O)N[C@@H](Cc1ccc(NS(=O)(=O)O)cc1)c1csc(-c2cccs2)n1 [Compound 1 sodium salt]
Choroid Conc. OS (24 hr): 9890 ng/mL and 10400 ng/mL | Choroid Conc. OD (24 hr): 11800 ng/mL and 18400 ng/mL | Choroid Conc. OS (48 hr): 3740 ng/mL and 2790 ng/mL | Choroid Conc. OD (48 hr): 3480 ng/mL and 4040 ng/mL | Choroid Conc. OS (72 hr): 282 ng/mL and 290 ng/mL | Choroid Conc. OD (72 hr): 107 ng/mL and 311 ng/mL | Choroid tissue Conc. Avg. (6.0 hr): 947375 ng/g | Choroid tissue Conc. OS (6.0 hr): 1155000 ng/g and 484000 ng/g | Choroid tissue Conc. OD (6.0 hr): 1804000 ng/g and 346500 ng/g | Choroid tissue Conc. Avg. (24 hr): 138848 ng/g | Choroid tissue Conc. OS (24 hr): 108790 ng/g and 114400 ng/g | Choroid tissue Conc. OD (24 hr): 129800 ng/g and 202400 ng/g | Choroid tissue Conc. Avg. (48 hr): 38638 ng/g | Choroid tissue Conc. OS (48 hr): 41140 ng/g and 30690 ng/g | Choroid tissue Conc. OD (48 hr): 38280 ng/g and 44440 ng/g | Choroid tissue Conc. Avg. (72 hr): 2723 ng/g | Choroid tissue Conc. OS (72 hr): 3102 ng/g and 3190 ng/g | Choroid tissue Conc. OD (72 hr): 1177 ng/g and 3421 ng/g | Cornea Conc. OS (6.0 hr): 6940 ng/mL and 6030 ng/mL | Cornea Conc. OD (6.0 hr): 6300 ng/mL and 6710 ng/mL | Cornea Conc. OS (24 hr): 1560 ng/mL and 1930 ng/mL | Cornea Conc. OD (24 hr): 2180 ng/mL and 2940 ng/mL | Cornea Conc. OS (48 hr): 662 ng/mL and 487 ng/mL | Cornea Conc. OD (48 hr): 1050 ng/mL and 538 ng/mL | Cornea Conc. OS (72 hr): 20.1 ng/mL and 58.1 ng/mL | Cornea Conc. OD (72 hr): 18.0 ng/mL and 56.9 ng/mL | Cornea tissue Conc. Avg. (6.0 hr): 71445 ng/g | Cornea tissue Conc. OS (6.0 hr): 76340 ng/g and 66330 ng/g | Cornea tissue Conc. OD (6.0 hr): 69300 ng/g and 73810 ng/g | Cornea tissue Conc. Avg. (24 hr): 23678 ng/g | Cornea tissue Conc. OS (24 hr): 17160 ng/g and 21230 ng/g | Cornea tissue Conc. OD (24 hr): 23980 ng/g and 32340 ng/g | Cornea tissue Conc. Avg. (48 hr): 7527 ng/g | Cornea tissue Conc. OS (48 hr): 7282 ng/g and 5357 ng/g | Cornea tissue Conc. OD (48 hr): 11550 ng/g and 5918 ng/g | Cornea tissue Conc. Avg. (72 hr): 421 ng/g | Cornea tissue Conc. OS (72 hr): 221 ng/g and 639 ng/g | Cornea tissue Conc. OD (72 hr): 198 ng/g and 626 ng/g | distribution among iris, retina, choroid, cornea (FIG. 15) (intravitreal 1.55 mg/kg, sodium salt): generally higher in the retina and choroid | Iris Conc. OS (6.0 hr): 34000 ng/mL and 30600 ng/mL | Iris Conc. OD (6.0 hr): 35500 ng/mL and 27800 ng/mL | Iris Conc. OS (24 hr): 7610 ng/mL and 25900 ng/mL | Iris Conc. OD (24 hr): 6890 ng/mL and 11000 ng/mL | Iris Conc. OS (48 hr): 1960 ng/mL and 2780 ng/mL | Iris Conc. OD (48 hr): 2380 ng/mL and 1820 ng/mL | Iris Conc. OS (72 hr): 225 ng/mL and 59.5 ng/mL | Iris Conc. OD (72 hr): 169 ng/mL and 110 ng/mL | Iris tissue Conc. Avg. (6.0 hr): 351725 ng/g | Iris tissue Conc. OS (6.0 hr): 374000 ng/g and 336600 ng/g | Iris tissue Conc. OD (6.0 hr): 390500 ng/g and 305800 ng/g | Iris tissue Conc. Avg. (24 hr): 141350 ng/g | Iris tissue Conc. OS (24 hr): 83710 ng/g and 284900 ng/g | Iris tissue Conc. OD (24 hr): 75790 ng/g and 121000 ng/g | Iris tissue Conc. Avg. (48 hr): 24585 ng/g | Iris tissue Conc. OS (48 hr): 21560 ng/g and 30580 ng/g | Iris tissue Conc. OD (48 hr): 26180 ng/g and 20020 ng/g | Iris tissue Conc. Avg. (72 hr): 1550 ng/g | Iris tissue Conc. OS (72 hr): 2475 ng/g and 655 ng/g | Iris tissue Conc. OD (72 hr): 1859 ng/g and 1210 ng/g
